Values quoted from earlier work, collected in patent US8273880B2, “Pyrazole compounds with inhibitory activity against ROS kinase” (Korea Institute of Science and Technology, priority 2009, dated 2012).

Biological target: ROS kinase (Homo sapiens, UniProt P08922)
Set-up: literature Reaction Biology Corporation
Conditions: Data from Reaction Biology corporation (website); read-out: Inhibitory Activity against ROS (IC50); cited from earlier work

ROS kinase, sequence (P08922 28-2347): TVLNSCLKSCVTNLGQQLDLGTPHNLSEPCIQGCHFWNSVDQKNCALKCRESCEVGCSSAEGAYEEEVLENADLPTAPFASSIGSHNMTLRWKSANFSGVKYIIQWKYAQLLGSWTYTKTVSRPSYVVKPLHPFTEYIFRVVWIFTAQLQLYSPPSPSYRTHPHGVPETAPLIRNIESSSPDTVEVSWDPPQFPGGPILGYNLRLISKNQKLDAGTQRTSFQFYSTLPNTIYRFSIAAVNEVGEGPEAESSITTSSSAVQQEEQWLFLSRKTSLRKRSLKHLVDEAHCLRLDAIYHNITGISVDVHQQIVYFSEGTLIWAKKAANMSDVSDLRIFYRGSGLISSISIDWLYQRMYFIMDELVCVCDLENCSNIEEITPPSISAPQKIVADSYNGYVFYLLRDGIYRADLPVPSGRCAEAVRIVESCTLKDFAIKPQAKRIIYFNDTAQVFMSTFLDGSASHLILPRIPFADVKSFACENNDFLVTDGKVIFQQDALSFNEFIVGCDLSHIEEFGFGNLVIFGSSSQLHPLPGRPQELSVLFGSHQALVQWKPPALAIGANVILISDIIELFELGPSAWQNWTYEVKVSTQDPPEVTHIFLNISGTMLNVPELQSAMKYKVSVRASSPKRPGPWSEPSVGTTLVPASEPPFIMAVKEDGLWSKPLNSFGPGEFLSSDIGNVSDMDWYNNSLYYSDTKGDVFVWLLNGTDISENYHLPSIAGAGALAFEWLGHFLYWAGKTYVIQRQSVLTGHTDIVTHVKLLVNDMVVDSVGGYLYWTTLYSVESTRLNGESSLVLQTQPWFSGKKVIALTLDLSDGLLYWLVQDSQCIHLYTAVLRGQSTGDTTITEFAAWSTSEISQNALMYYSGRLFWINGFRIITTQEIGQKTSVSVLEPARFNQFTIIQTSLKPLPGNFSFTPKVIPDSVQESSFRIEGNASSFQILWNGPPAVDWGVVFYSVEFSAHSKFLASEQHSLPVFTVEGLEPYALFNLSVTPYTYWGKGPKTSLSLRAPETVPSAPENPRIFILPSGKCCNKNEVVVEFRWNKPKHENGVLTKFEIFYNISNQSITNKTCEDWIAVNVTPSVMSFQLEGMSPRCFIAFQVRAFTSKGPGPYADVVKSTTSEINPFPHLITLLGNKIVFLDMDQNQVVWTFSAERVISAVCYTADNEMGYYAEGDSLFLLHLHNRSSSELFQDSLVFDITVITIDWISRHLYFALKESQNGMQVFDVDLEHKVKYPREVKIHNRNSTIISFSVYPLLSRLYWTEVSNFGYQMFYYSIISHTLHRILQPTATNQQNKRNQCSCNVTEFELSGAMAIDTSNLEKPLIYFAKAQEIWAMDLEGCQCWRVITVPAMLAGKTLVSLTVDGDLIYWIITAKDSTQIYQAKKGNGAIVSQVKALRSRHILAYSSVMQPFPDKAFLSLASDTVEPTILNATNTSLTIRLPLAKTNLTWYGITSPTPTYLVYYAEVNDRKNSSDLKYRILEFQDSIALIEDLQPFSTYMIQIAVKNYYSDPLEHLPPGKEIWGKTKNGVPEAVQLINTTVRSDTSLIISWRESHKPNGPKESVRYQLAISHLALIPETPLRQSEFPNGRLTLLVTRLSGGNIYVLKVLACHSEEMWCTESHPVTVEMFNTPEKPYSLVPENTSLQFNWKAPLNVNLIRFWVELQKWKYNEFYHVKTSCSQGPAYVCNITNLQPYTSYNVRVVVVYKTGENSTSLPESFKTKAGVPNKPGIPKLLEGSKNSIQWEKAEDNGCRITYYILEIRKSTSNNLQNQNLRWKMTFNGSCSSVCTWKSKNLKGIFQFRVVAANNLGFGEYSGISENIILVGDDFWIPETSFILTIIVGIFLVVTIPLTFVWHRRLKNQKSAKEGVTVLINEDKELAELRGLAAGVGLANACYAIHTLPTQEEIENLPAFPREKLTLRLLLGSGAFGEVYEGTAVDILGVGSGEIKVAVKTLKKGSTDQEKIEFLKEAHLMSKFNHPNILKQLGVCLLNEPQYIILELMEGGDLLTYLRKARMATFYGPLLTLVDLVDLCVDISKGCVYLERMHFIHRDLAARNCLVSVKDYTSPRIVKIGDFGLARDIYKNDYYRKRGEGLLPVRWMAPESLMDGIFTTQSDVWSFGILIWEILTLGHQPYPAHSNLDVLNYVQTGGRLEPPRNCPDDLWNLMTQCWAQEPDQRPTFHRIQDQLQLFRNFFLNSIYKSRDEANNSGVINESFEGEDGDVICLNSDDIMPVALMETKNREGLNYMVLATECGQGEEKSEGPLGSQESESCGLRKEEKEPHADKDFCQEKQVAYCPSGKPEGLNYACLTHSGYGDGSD

**Q.** With `COc1cc2ncnc(Nc3cccc(Cl)c3)c2cc1OC` [AG1478] as the molecule, how does the IC50 read?
**A.** 13.6 µM
